Laboratory results reported in patent US10265376B2, “Use of chelating agent and peptide antimicrobial compounds” (Consumo Em Verde Biotecnologia Das Plantas, S.A., priority 2010, dated 2019).

What was measured:
[1] = tested on: Botrytis cinerea; assay: Inhibition halo for BLAD with and without EDTA against Botrytis cinerea on Potato Dextrose Agar; assay type: cell-based
Method: Inhibition Halo Data for BLAD with and without EDTA Against Botrytis cinerea on Potato Dextrose Agar (PDA) at 1.2% w/v of Agar (Incubation 3 Days at 25° C.): […]

[2] = tested on: P. aeruginosa; assay: Bacteriostatic/bactericidal activity of BLAD, EDTA and their combination against P. aeruginosa; assay type: cell-based, Pseudomonas aeruginosa; settings: EDTA at 1 mg/ml alone
[3] = tested on: Erwinia pirsicina; assay: MIC of BLAD and EDTA against Erwinia pirsicina; assay type: cell-based; settings: EDTA alone
[4] = tested on: Streptomyces griseus; assay: MIC of BLAD and EDTA against Streptomyces griseus; assay type: cell-based; settings: EDTA alone
[5] = tested on: Fusarium oxysporum; assay: Inhibition halo for BLAD with and without EDTA against Fusarium oxysporum on Potato Dextrose Agar; assay type: cell-based
Method: Inhibition Halo Data for BLAD with and without EDTA Against Fusarium oxysporum on Potato Dextrose Agar (PDA) at 1.2% w/v of Agar (Incubation 3 Days at 25° C.): […]

[6] = EDTA 50 mM alone, PDA 1.2% w/v agar, 3 days at 25° C.
[7] = EDTA 50 mM alone, individual replicates, PDA 1.2% w/v agar, 3 days at 25° C.

MIC [3]: 15 mM
MIC [4]: 16 mM
Compound: O=C(O)CN(CCN(CC(=O)O)CC(=O)O)CC(=O)O [EDTA, ethylenediaminetetraacetic acid]
Average inhibition halo diameter [1, 6]: 0 mm
Inhibition halo diameter [1, 7]: 0 mm
growth inhibition (in words) ([1]; EDTA alone at 50 mM): No growth inhibition
effect on growth [2]: inhibits growth
Average inhibition halo diameter [5, 6]: 0 mm
Inhibition halo diameter [5, 7]: 0 mm
growth inhibition (in words) ([5]; EDTA alone at 50 mM): No growth inhibition
